Earlier results as cited in the PKSmart pharmacokinetics tables (Seal et al. 2025).

Legend:
[1] = Lombardo et al. 2013, J Clin Pharmacol 53:178, doi 10.1177/0091270012440282; details: for Vd / clearance: in vivo, iv; for fraction unbound: plasma
[2] = Lombardo, Berellini, Obach 2018, Drug Metab Dispos 46:1466, doi 10.1124/dmd.118.082966; details: human; for fraction unbound: plasma; for MRT / clearance / half-life / Vd: in vivo, iv

| Compound | Vd ([1]; monkey) | clearance ([1]; monkey) | Vd ([1]; rat) | clearance ([1]; rat) | fraction unbound ([1]; rat) | fraction unbound [2] | Vd ([1]; dog) | clearance ([1]; dog) | fraction unbound ([1]; dog) | fraction unbound ([1]; monkey) | MRT [2] | clearance [2] | half-life [2] | Vd [2] |
| --- | --- | --- | --- | --- | --- | --- | --- | --- | --- | --- | --- | --- | --- | --- |
| Nc1ccn([C@H]2CC[C@@H](CO)O2)c(=O)n1 | 0.98 L/kg | 10.3 mL/min/kg | 1 L/kg | 11.2 mL/min/kg | 0.85 | 0.96 | – | – | – | – | – | – | – | – |
| CN(C)CCCC1(c2ccc(F)cc2)OCc2cc(C#N)ccc21 (stereo not drawn) | 10 L/kg | 40 mL/min/kg | 21 L/kg | 82 mL/min/kg | 0.26 | – | 10 L/kg | 14 mL/min/kg | 0.444 | 0.399 | 47 h | 4.3 mL/min/kg | 33 h | – |
| CCOC(=O)c1ncn2c1CN(C)C(=O)c1cc(F)ccc1-2 | – | – | 1.3 L/kg | 147 mL/min/kg | – | – | 1 L/kg | 16 mL/min/kg | 0.685 | – | 1 h | 16 mL/min/kg | 0.78 h | – |
| CCCCS(=O)(=O)NC(Cc1ccc(OCCCCC2CCNCC2)cc1)C(=O)O (stereo not drawn) | – | – | 1.42 L/kg | – | 0.15 | 0.36 | 0.52 L/kg | 36.4 mL/min/kg | 0.55 | – | 1.8 h | 3 mL/min/kg | 1.6 h | 0.34 L/kg |
| NCCC(O)C(=O)N[C@@H]1C[C@H](N)[C@@H](O[C@H]2O[C@H](CN)[C@@H](O)[C@H](O)[C@H]2O)[C@H](O)[C@H]1O[C@H]1O[C@H](CO)[C@@H](O)[C@H](N)[C@H]1O (stereo partly drawn) | – | – | 0.16 L/kg | 5.4 mL/min/kg | – | 0.88 | 0.2 L/kg | 3.5 mL/min/kg | – | – | 2.4 h | 1.1 mL/min/kg | 2.4 h | 0.16 L/kg |
| Cc1ncc2n1-c1ccc(Cl)cc1C(c1ccccc1F)=NC2 | 3 L/kg | 22.3 mL/min/kg | 2.6 L/kg | 90 mL/min/kg | 0.04 | – | 1.1 L/kg | 35.2 mL/min/kg | 0.0223 | 0.146 | 3.5 h | 5.3 mL/min/kg | 3.1 h | 1.1 L/kg |
| Cc1ncc([N+](=O)[O-])n1CCO | – | – | 1.2 L/kg | 5.8 mL/min/kg | – | – | 0.1 L/kg | 2.5 mL/min/kg | 0.983 | – | 7.8 h | 0.85 mL/min/kg | 7.1 h | 0.4 L/kg |
| CC1(C)S[C@@H]2C(NC(=O)C(N)c3ccc(O)cc3)C(=O)N2C1C(=O)O (stereo partly drawn) | – | – | 0.5 L/kg | 17 mL/min/kg | – | – | 0.31 L/kg | 3.4 mL/min/kg | 0.66 | – | 1.3 h | 3.3 mL/min/kg | 1.1 h | 0.25 L/kg |
| Cc1cn([C@H]2C=C[C@@H](CO)O2)c(=O)[nH]c1=O | 0.8 L/kg | 9.4 mL/min/kg | 1.09 L/kg | 20.2 mL/min/kg | 0.9 | 1 | – | – | 0.9 | 0.9 | 1.4 h | 8.2 mL/min/kg | 1.4 h | 0.67 L/kg |
| C[C@@H](O)C1C(=O)N2C(C(=O)O)=C(S[C@@H]3CNC(C(=O)N(C)C)C3)[C@H](C)[C@H]12 (stereo partly drawn) | 0.23 L/kg | 7.5 mL/min/kg | 0.14 L/kg | 26.4 mL/min/kg | 0.5 | 0.87 | 0.22 L/kg | 4 mL/min/kg | 0.726 | 0.666 | 1.3 h | 3.9 mL/min/kg | 1 h | 0.3 L/kg |
| c1ccc(C2(N3CCCCC3)CCCCC2)cc1 | 6.78 L/kg | 36.6 mL/min/kg | 12.6 L/kg | 66.3 mL/min/kg | 0.37 | – | 16.6 L/kg | 54.1 mL/min/kg | 0.43 | 0.314 | 23 h | 5.1 mL/min/kg | 16 h | 6.9 L/kg |
| COc1ccc(Cl)cc1[C@]1(F)C(=O)Nc2cc(C(F)(F)F)ccc21 | – | – | 6.3 L/kg | 43 mL/min/kg | – | 0.0038 | 4.06 L/kg | 3.5 mL/min/kg | 0.0067 | – | 11 h | 15 mL/min/kg | 37 h | 10 L/kg |
| C[C@]12C=CC(=O)C=C1CC[C@@H]1[C@@H]2[C@@H](O)C[C@@]2(C)[C@H]1CC[C@]2(O)C(=O)CO | – | – | 1.74 L/kg | 98.7 mL/min/kg | 0.32 | 0.25 | – | – | – | – | – | – | – | – |
| C[C@]12CC[C@@H]3c4ccc(OC(=O)N(CCCl)CCCl)cc4CC[C@H]3[C@@H]1CC[C@@H]2OP(=O)(O)O | – | – | – | – | – | 0.5 | 0.16 L/kg | 2 mL/min/kg | – | – | 2.1 h | 0.94 mL/min/kg | 2.4 h | 0.12 L/kg |
| CN(Cc1cnc2nc(N)nc(N)c2n1)c1ccc(C(=O)NC(CCC(=O)O)C(=O)O)cc1 (stereo not drawn) | – | – | – | – | 0.68 | – | – | – | – | – | 3.4 h | 2.1 mL/min/kg | – | 0.43 L/kg |
| CCN(C(C)=O)c1cccc(-c2ccnc3c(C#N)cnn23)c1 | – | – | 1.72 L/kg | 20.7 mL/min/kg | – | 0.4 | – | – | – | – | 1.4 h | – | – | 1.3 L/kg |
| NCCC(O)(P(=O)(O)O)P(=O)(O)O | – | – | 0.18 L/kg | 15.2 mL/min/kg | – | 0.7 | – | – | – | – | 12 h | 2.5 mL/min/kg | 32 h | 1.8 L/kg |
| O=C(O)c1cc(-c2ccc(F)cc2F)ccc1O | – | – | 0.15 L/kg | 1.52 mL/min/kg | – | – | – | – | – | – | 14 h | 0.1 mL/min/kg | 10 h | 0.097 L/kg |
| COc1cc(NCc2ccc3nc(N)nc(N)c3c2C)cc(OC)c1OC | 1.56 L/kg | 8.5 mL/min/kg | 9.2 L/kg | 71.1 mL/min/kg | – | 0.05 | 11.7 L/kg | 33.2 mL/min/kg | 1 | 0.1 | 17 h | 0.77 mL/min/kg | 17 h | 0.77 L/kg |
| CC(C)(C)NCC(O)c1cc(O)cc(O)c1 (stereo not drawn) | – | – | 3.3 L/kg | 60 mL/min/kg | – | – | – | – | – | – | 7.4 h | 3.4 mL/min/kg | 15 h | 1.5 L/kg |
| CCS(=O)(=O)CCn1c([N+](=O)[O-])cnc1C | – | – | – | – | – | – | 0.89 L/kg | 1.67 mL/min/kg | – | – | 16 h | 0.6 mL/min/kg | 13 h | 0.59 L/kg |
| CC[C@@]1(O)C(=O)OCc2c1cc1n(c2=O)Cc2cc3c(N)cccc3nc2-1 | – | – | 5 L/kg | 150 mL/min/kg | – | 0.003 | – | – | – | – | 5.6 h | 6.5 mL/min/kg | 7 h | 2.2 L/kg |
| CC1(C)S[C@@H]2C(NC(=O)C(N)c3ccccc3)C(=O)N2C1C(=O)O (stereo partly drawn) | – | – | 1.1 L/kg | 19 mL/min/kg | 0.6 | – | 0.58 L/kg | 9.1 mL/min/kg | 0.58 | – | 1.3 h | 2.8 mL/min/kg | 1.4 h | 0.22 L/kg |
| CC1COc2c(N3CCN(C)CC3)c(F)cc3c(=O)c(C(=O)O)cn1c23 (stereo not drawn) | – | – | 1.42 L/kg | 13.2 mL/min/kg | – | – | 1.3 L/kg | 23.2 mL/min/kg | 0.51 | 0.71 | 11 h | 2.5 mL/min/kg | 8.9 h | 1.6 L/kg |
| COc1nc(C)nc(Cl)c1NC1=NCCN1 | – | – | 3.2 L/kg | 50.1 mL/min/kg | – | – | – | – | – | – | 2.7 h | 11 mL/min/kg | 2.2 h | 1.8 L/kg |
| CCCN1CCCCC1C(=O)Nc1c(C)cccc1C (stereo not drawn) | – | – | – | – | – | 0.06 | 1.42 L/kg | 30 mL/min/kg | – | – | 2.3 h | 5.5 mL/min/kg | 2.2 h | 0.75 L/kg |
| COc1cccc([C@@]2(O)CCCC[C@@H]2CN(C)C)c1 | – | – | 3.86 L/kg | 63.5 mL/min/kg | 0.75 | – | 3.01 L/kg | 54.6 mL/min/kg | 0.745 | – | 7.2 h | 6.5 mL/min/kg | 5.8 h | 2.8 L/kg |
